{
  "source": "paper PMC7567103",
  "about": "(Nature Communications, 2020)",
  "key": {"GHRHR I289A": {"biological_target": "T1, GHRHR I289A (Homo sapiens, UniProt Q02643, I289A)", "T1 construct": "GHRHR(23-423)-; HA signal peptide (replaces native signal M1-G22) (N); expressed in transfected cells; host or cells: HEK 293T, pcDNA3.1, transient", "T1 sequence (Q02643 23-423 I289A)": "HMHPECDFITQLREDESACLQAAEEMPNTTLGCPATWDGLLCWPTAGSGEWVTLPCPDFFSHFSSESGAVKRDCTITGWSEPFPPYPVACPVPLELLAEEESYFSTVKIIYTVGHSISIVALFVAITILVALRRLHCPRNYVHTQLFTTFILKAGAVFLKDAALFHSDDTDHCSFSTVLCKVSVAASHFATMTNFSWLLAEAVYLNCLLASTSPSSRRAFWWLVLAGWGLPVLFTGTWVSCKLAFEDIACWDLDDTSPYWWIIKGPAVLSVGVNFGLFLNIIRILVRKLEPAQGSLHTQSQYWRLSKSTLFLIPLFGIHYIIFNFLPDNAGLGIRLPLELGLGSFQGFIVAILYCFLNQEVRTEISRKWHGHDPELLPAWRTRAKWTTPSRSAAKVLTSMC", "assay": "cAMP accumulation, I289A", "assay_type": "cell-based", "details": "mean ± SEM, n ≥ 3", "text": "(§1) Fig. 2 Molecular recognition of GHRH by GHRHR and comparison of that with LA-PTH–PTH1R and GLP-1–GLP-1R. a Detailed interaction between GHRH and the TMD pocket of GHRHR with hydrogen bonds shown as dotted lines. b, c Pairwise comparison of GHRH bound to GHRHR with GLP-1 and LA-PTH in complex with their corresponding receptors, showing the relative positions of peptide ligands. Lime green, GHRHR; blue, GHRH; red, PTH1R and LA-PTH; purple, GLP-1R and GLP-1. d–f The effects of mutation in the ligand-binding pocket on cAMP accumulation. cAMP levels were measured in wild-type (WT) receptor and alanine mutants in ECL1, 2, and 3 (d), TM1, 2, and 3 (e), and TM5, 6, and 7 (f). cAMP signals were normalized to the maximum response of WT and concentration–response curves were analyzed using a three-parameter logistic equation. Data shown are means ± S.E.M. of at least three independent experiments (n = 3–5), conducted in triplicate. Source data are provided as a Source data file.\n(§2) GHRH-stimulated cAMP accumulation was measured by a LANCE Ultra cAMP kit (PerkinElmer). […] After 1 h RT incubation, TR-FRET signals (excitation: 320 nm, emission: 615 and 665 nm) were measured by an EnVision (PerkinElmer)."}, "[1]": {"biological_target": "T2, GHRHR(23-405)-15AA-LgBiT-2MBP (Homo sapiens, UniProt Q02643)", "T2 construct": "24 h after transfection with GHRHR(23-423), GHRHR(23-405), GHRHR(23-405)-LgBiT-2MBP, or HA-Flag-GHRHR (WT and mutants); HA signal peptide (replaces native signal M1-G22) (N); expressed in transfected cells; host or cells: HEK 293 T", "T2 sequence (Q02643 23-405)": "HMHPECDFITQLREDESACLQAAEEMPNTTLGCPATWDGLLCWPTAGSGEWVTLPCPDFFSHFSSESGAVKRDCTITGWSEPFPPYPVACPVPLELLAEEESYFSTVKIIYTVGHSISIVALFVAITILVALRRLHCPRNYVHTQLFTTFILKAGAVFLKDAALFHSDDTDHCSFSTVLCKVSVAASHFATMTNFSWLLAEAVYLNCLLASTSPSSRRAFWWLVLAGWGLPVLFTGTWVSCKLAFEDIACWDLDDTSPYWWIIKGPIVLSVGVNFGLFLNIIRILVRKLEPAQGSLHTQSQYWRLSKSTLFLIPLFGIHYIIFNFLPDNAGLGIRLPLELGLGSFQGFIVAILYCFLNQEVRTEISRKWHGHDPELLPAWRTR", "assay": "whole cell binding, competitive inhibition of 125I-GHRH (Supplementary Fig. 2c)", "details": "competition with 80 pM 125I-GHRH; whole HEK 293T cells, RT 3 h; mean ± SEM, n = 7-8", "description": "This assay was conducted in 96-well Iso-plates (PerkinElmer) coated with poly-D-lysine hydrobromide (Sigma-Aldrich). Twenty-four hour after transfection with GHRHR(23-423) or GHRHR(23-405)-LgBiT-2MBP, HEK 293 T cells were washed twice, and incubated with blocking buffer (DMEM medium supplemented with 33 mM HEPES, and 0.1% (w/v) BSA, pH 7.4) for 2 h at 37 °C. Then, radiolabeled ^125I-GHRH (80 pM, Phoenix Biotech) and seven decreasing concentrations of unlabeled peptide (10 μM, […]) were added and competitively reacted with the cells in binding buffer (PBS supplemented with 10% (w/v) BSA, pH 7.4) at RT for 3 h. Cells were washed with ice-cold PBS and lysed by 50 μL lysis buffer (PBS supplemented with 20 mM Tris-HCl and 1% (v/v) Triton X-100, pH 7.4). Finally, 150 μL of scintillation cocktail (OptiPhase SuperMix, PerkinElmer) was employed and radioactivity (counts per minute) read in a scintillation counter (MicroBeta[2] plate counter, PerkinElmer).\n93 of transfection. Data are normalized by the WT receptor and fitted with a three-\n94 parameter logistic equation. All values are means ± S.E.M. of at least three […]\nBinding affinity is quantified by\n97 reduction of radioactivity (counts per minute, CPM) and normalized to the […]\n(§3) 231 Binding data were analyzed using a three-parameter logistic equation to […]\n(§4) 234 determine statistical difference. *P<0.01; ND, not determined."}, "GHRHR H194A": {"biological_target": "T3, GHRHR H194A (Homo sapiens, UniProt Q02643, H194A)", "T3 construct": "GHRHR(23-423)-; HA signal peptide (replaces native signal M1-G22) (N); expressed in transfected cells; host or cells: HEK 293T, pcDNA3.1, transient", "T3 sequence (Q02643 23-423 H194A)": "as the sequence (Q02643 23-423 I289A) above, with H172A, A267I counted along it", "assay": "cAMP accumulation, H194A", "assay_type": "cell-based", "details": "mean ± SEM, n ≥ 3", "text": "as §1, §2"}, "GHRHR(23-405)": {"biological_target": "T4, GHRHR(23-405) (Homo sapiens, UniProt Q02643)", "T4 construct": "24 h after transfection with GHRHR(23-423), GHRHR(23-405), GHRHR(23-405)-LgBiT-2MBP, or HA-Flag-GHRHR (WT and mutants); HA signal peptide (replaces native signal M1-G22) (N); expressed in transfected cells; host or cells: HEK 293 T", "assay": "cAMP accumulation, construct GHRHR(23-405) (Supplementary Fig. 2b)", "assay_type": "cell-based", "details": "HEK 293T; mean ± SEM, n = 8-10", "description": "GHRH-stimulated cAMP accumulation was measured by a LANCE Ultra cAMP kit (PerkinElmer). Briefly, 24 h after transfection with GHRHR(23-423), GHRHR(23-405), GHRHR(23-405)-LgBiT-2MBP, or HA-Flag-GHRHR (WT and mutants), HEK 293 T cells (3000/well in 384-well white plates, PerkinElmer) were digested by 0.2% (w/v) EDTA and 5 μL stimulation buffer (HBSS supplemented with 5 mM HEPES, 0.5 mM IBMX, and 0.1% (w/v) BSA, pH 7.4). Different concentrations (5 μL) of GHRH were then added and the stimulation lasted for 30 min at RT. The reaction was stopped by adding 5 μL Eu-cAMP tracer and 5 μL ULight-anti-cAMP. After 1 h RT incubation, TR-FRET signals (excitation: 320 nm, emission: 615 and 665 nm) were measured by an EnVision (PerkinElmer).\n223 Supplementary Ta b l e 1. Effects of GHRH-mediated cAMP accumulation.\nReceptor cAMP Cell surface expression Binding\npEC50 Emax (% WT) (% WT) pIC50 […]\n225 to determine pEC50 and Emax values. pEC50 is the negative logarithm of the molar\n226 concentration of agonist that induced half the maximal response. Cell surface […]\n228 Flag antibody (Sigma-Aldrich, 1:300); Donkey anti-Mouse Alexa Fluor 488-\n229 conjugated secondary antibody, (ThermoFisher Scientific, 1:1000)] on the […]\nas §3, §4"}},
  "data": [
    {"smiles": "CC[C@H](C)[C@H](NC(=O)[C@H](C)NC(=O)[C@H](CC(=O)O)NC(=O)[C@H](C)NC(=O)[C@@H](N)Cc1ccc(O)cc1)C(=O)N[C@@H](Cc1ccccc1)C(=O)N[C@H](C(=O)N[C@@H](CC(N)=O)C(=O)N[C@@H](CO)C(=O)N[C@@H](Cc1ccc(O)cc1)C(=O)N[C@@H](CCCNC(=N)N)C(=O)N[C@@H](CCCCN)C(=O)N[C@H](C(=O)N[C@@H](CC(C)C)C(=O)NCC(=O)N[C@@H](CCC(N)=O)C(=O)N[C@@H](CC(C)C)C(=O)N[C@@H](CO)C(=O)N[C@@H](C)C(=O)N[C@@H](CCCNC(=N)N)C(=O)N[C@@H](CCCCN)C(=O)N[C@@H](CC(C)C)C(=O)N[C@@H](CC(C)C)C(=O)N[C@@H](CCC(N)=O)C(=O)N[C@@H](CC(=O)O)C(=O)N[C@H](C(=O)N[C@@H](CCSC)C(=O)N[C@@H](CO)C(=O)N[C@@H](CCCNC(=N)N)C(=O)N[C@@H](CCC(N)=O)C(=O)N[C@@H](CCC(N)=O)C(=O)NCC(=O)N[C@@H](CCC(=O)O)C(=O)N[C@@H](CO)C(=O)N[C@@H](CC(N)=O)C(=O)N[C@@H](CCC(N)=O)C(=O)N[C@@H](CCC(=O)O)C(=O)N[C@@H](CCCNC(=N)N)C(=O)NCC(=O)N[C@@H](C)C(=O)N[C@@H](CCCNC(=N)N)C(=O)N[C@@H](C)C(=O)N[C@@H](CCCNC(=N)N)C(=O)N[C@@H](CC(C)C)C(N)=O)[C@@H](C)CC)C(C)C)[C@@H](C)O", "note": "[GHRH, Growth hormone-releasing hormone]", "values": [
      {"measurement": "EC50", "setting": "GHRHR I289A", "result": 9.77, "unit": "nM"},
      {"measurement": "Emax", "setting": "GHRHR I289A", "result": "93.36±2.36", "unit": "% WT"},
      {"measurement": "IC50", "setting": "[1]", "result": 0.879, "unit": "nM"},
      {"measurement": "EC50", "setting": "GHRHR H194A", "result": 0.251, "unit": "nM"},
      {"measurement": "Emax", "setting": "GHRHR H194A", "result": "98.01±1.25", "unit": "% WT"},
      {"measurement": "EC50", "setting": "GHRHR(23-405)", "result": 0.871, "unit": "nM"},
      {"measurement": "Emax", "setting": "GHRHR(23-405)", "result": "120.55±1.97", "unit": "% WT"}
    ]}
  ]
}
